Experimental data taken from PMC6271978, “1H-2,3-Dihydroperimidine Derivatives: A New Class of Potent Protein Tyrosine Phosphatase 1B Inhibitors” (Molecules, 2013).

Assays:
TCPTP (GST-TCPTP) = biological target: T1, TCPTP (GST-TCPTP) (Homo sapiens, UniProt P17706); experiment: TCPTP inhibition, colorimetric pNPP assay; format: biochemical
T1 sequence (P17706 1-415): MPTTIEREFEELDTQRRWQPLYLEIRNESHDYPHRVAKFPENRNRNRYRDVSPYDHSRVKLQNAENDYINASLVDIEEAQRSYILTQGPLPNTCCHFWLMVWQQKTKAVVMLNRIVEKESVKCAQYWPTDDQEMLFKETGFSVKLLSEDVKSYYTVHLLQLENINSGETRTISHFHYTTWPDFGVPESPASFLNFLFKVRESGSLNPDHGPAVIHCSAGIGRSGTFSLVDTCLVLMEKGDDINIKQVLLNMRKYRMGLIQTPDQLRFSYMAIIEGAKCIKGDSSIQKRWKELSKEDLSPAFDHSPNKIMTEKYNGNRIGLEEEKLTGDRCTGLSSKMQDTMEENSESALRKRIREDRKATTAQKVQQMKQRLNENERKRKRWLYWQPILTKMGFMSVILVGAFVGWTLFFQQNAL
Description: (§1) In addition to potency improvements, we investigated the selectivity of three representative compounds, namely, 1, 46 and 49 against other PTPs (TCPTP, SHP-1, SHP-2, LAR). […] Besides TCPTP, we tested the inhibitory activity of these compounds on other three homogenous enzymes SHP-1, SHP-2, and LAR [25].
(§2) A colorimetric assay to measure inhibition against PTP1B and TCPTP was performed in 96-well plates. Briefly, the tested compounds were solubilized in DMSO and serially diluted into concentrations for the inhibitory test. The assays were carried out in a final volume of 100 μL containing 50 mmol/L MOPS, pH 6.5, 2 mmol/L pNPP, 30 nmol/L GST-PTP1B or GST-TCPTP,and 2% DMSO, and the catalysis of pNPP was continuously monitored on a SpectraMax 340 microplate reader at 405 nm for 3 min at 30 °C. The IC50 value was calculated from the nonlinear curve fitting of the percent inhibition [inhibition (%)] vs. the inhibitor concentration using the Equation (1): Inhibition (%) = 100/[1 + (IC50/[I]k)] (1) where k is the Hill coefficient. To study the inhibition on the other PTPase family members, SHP1, SHP2 and LAR were prepared and assays were performed according to procedures described previously. Briefly, the enzymatic activity of the SHP1, SHP2 and LARwere determined at 30 °C by monitoring the dephosphorylation of substrate 3-o-methylfluorescein phosphate (OMFP), product was then detected at a 485 nm excitation wavelength and 530 nm emission wavelength by the EnVision multilabe plate reader (Perkin-Elmer Life Sciences, Boston, MA, USA). The assays were carried out in a final volume of 50 μL containing 50 mmol/L MOPS, pH 6.8, 10 μmol/L OMFP, 20 nmol/L recombinant enzyme, 2 mmol/L dithiothreitol , 1 mmol/L EDTA, and 2% DMSO. The initial rate of the dephosphorylation was presented by the early linear region of the enzymatic reaction kinetic curve, the inhibitory activity of the compound was continuously monitored.

SHP-2 = biological target: T2, SHP-2 (Homo sapiens, UniProt Q06124); experiment: SHP-2 inhibition, OMFP substrate assay; format: biochemical
T2 construct: made in house
T2 sequence (Q06124 1-593): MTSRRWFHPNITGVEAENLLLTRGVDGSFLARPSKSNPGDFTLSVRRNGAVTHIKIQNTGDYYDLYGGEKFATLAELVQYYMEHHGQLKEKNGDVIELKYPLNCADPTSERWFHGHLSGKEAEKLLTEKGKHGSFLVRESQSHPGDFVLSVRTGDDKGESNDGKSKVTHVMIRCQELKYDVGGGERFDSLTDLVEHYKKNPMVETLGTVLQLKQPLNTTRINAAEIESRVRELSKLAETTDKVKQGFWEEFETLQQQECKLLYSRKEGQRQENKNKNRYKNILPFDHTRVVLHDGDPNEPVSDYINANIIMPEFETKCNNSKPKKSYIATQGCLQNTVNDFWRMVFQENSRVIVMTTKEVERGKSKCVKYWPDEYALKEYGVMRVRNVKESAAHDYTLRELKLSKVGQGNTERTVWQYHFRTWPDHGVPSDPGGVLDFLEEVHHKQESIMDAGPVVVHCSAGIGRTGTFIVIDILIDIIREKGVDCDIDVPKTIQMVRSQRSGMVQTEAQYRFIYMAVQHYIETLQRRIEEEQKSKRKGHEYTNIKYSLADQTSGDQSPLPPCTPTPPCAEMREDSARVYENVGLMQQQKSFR
Description: as §1, §2

IC50 (TCPTP (GST-TCPTP); pNPP substrate, means ± SD of three replications, PC = oleanolic acid): 2.3 ± 0.17 µM
TCPTP/PTP1B (selectivity, fold) (TCPTP (GST-TCPTP); ratio of IC50 TCPTP to IC50 PTP1B): 3.48
IC50 (SHP-2; OMFP substrate, means ± SD of three replications, PC = Na3VO4): 5.95 ± 0.29 µM
selectivity for PTP1B over SHP-2 (SHP-2; from IC50 values): about 9 fold
SMILES: O=C(O)CNC(=O)c1ccc(C2Nc3cccc4cccc(c34)N2)nc1 [Compound 46]
